Patent US10874621B2, “Cationic nanoparticles for co-delivery of nucleic acids and therapeutic agents” (The Brigham and Women's Hospital, Inc., priority 2013, dated 2020)

Assay: Solubility of compound 1 in organic solvents
Assay type: physicochemical
Conditions: organic solvents like DMSO and dichloromethane (DCM)

## cis,cis,trans-[Pt(NH3)2Cl2(OOC(CH2)8CH3)2] [Compound 1]
  solubility in organic solvents: sufficiently soluble
